Measurements: US10125116B2, “Compounds and methods for treating mammalian gastrointestinal microbial infections” (Brandeis University, priority 2009, dated 2018)
Read-outs that look alike come from different tables or passages of the source.

Experiments:
T. gondii-CpIMPDH = T. gondii-CpIMPDH fluorescence growth assay; assay type: cell-based, Toxoplasma gondii
wild-type T. gondii = wild-type T. gondii fluorescence growth assay; assay type: cell-based; conditions: Toxoplasma gondii
T. gondii-ΔHXGPRT = T. gondii-ΔHXGPRT fluorescence growth assay; assay type: cell-based; conditions: Toxoplasma gondii, read-out: EC50 T. gondii-ΔHXGPRT growth
HCT-8 cells = assay: fluorescent HCT-8 host cell growth assay; assay type: cell-based, human
Source text: The differentiation of selective antiparasitic effects from those that are a secondary consequence of a host cell effect is a critical issue in drug discovery for intracellular parasites. Cytotoxicity assays commonly reflect plasma membrane integrity, and are a crude measure of host cell effects—it is conceivable that more subtle perturbations of host cell metabolism can have an adverse effect on parasite proliferation. Therefore we sought to develop a simple and inexpensive assay of host cell growth. The human ileocecal adenocarcinoma epithelial cell line, HCT-8, which is commonly used to maintain C. parvum infection in tissue culture, was engineered to constitutively express a green fluorescent protein (GFP). Growth of this cell line was monitored daily using a fluorescent plate reader. […] These experiments validate the use of the fluorescent HCT-8 cell growth assay.
HCT-8 cells were transfected with the pmaxGFP plasmid (Amaxa) using Lipofectamine (Invitrogen) following the manufactures instruction. Fluorescent lines were then selected and cloned using FACS. Confluent monolayers of pmaxGFP expressing cells were harvested from T75 flasks and passed through a 40 μm cell strainer. Cells were then seeded at 4000 cells per well in a volume of 200 μL into black, optical quality, thin bottom, 96-well plates (DB Falcon). All test compounds were diluted in DMSO to prepare a 200× working stock for each dilution. Appropriate wells were spiked with 1 μl such that the final concentration of DMSO was 0.5%. The fluorescence was read daily with a SpectraMax M22/M2e (Molecular Devices) plate reader (Ex 485, Em 530) for 6-7 days. The percent inhibition was calculated on a day within the exponential phase of growth.

[1] = molecular target: CpIMPDH, HpIMPDH, BbIMPDH, SpIMPDH, EcIMPDH and TfIMPDH
[2] = test system: primary human, mouse, rat, and dog lymphocytes; conditions: cited from earlier work
[3] = read-out: intrinsic Ki (adjusted for competition from the mobile flap), range over IMPDHs

In the case of `CC(Oc1ccnc2ccccc12)c1cn(-c2ccc(Cl)c(Cl)c2)nn1` (centres unmarked) [Compound 14, 4-(1-(1-(3,4-dichlorophenyl)-1H-1,2,3-triazol-4-yl)ethoxy)quinoline], the melting point is reported as 62 to 64 °C.

In the case of `CC(Oc1cccc2ccccc12)c1cn(-c2ccc(Cl)cc2)nn1` (centres unmarked) [Compound 1, 1-(4-chlorophenyl)-4-(1-(naphthalene-1-yloxy)ethyl)-1H-1,2,3-triazole], the melting point is reported as 98 to 100 °C.

For `COc1c(C)c2c(c(O)c1C/C=C(\C)CCC(=O)O)C(=O)OC2` [MPA, mycophenolic acid], the EC50 (T. gondii-CpIMPDH; Toxoplasma gondii, read-out: EC50 T. gondii-CpIMPDH growth) was > 65 µM, the EC50 (wild-type T. gondii; media with xanthine (0.33 mM), read-out: EC50 wild-type T. gondii growth, xanthine supplemented) was ≥ 78 µM and the EC50 (wild-type T. gondii; read-out: EC50 wild-type T. gondii growth) was 2.6 µM. For the same compound, the EC50 (T. gondii-ΔHXGPRT) was 0.29 µM.

With `C[C@@H](Oc1ccnc2ccccc12)c1cn(-c2ccc(Cl)c(Cl)c2)nn1` [A105] the “selectivity for T. gondii-CpIMPDH parasite over wild-type T. gondii” value (from here on “selectivity”) (T. gondii-CpIMPDH) was “little selectivity” and the “host cell (HCT-8) growth effect, in words” value (“host cell” below) (HCT-8 cells) was “do not inhibit host cell growth”.

In the case of `C[C@H](Oc1ccnc2ccccc12)c1cn(-c2ccc(Cl)c(Cl)c2)nn1` [Compound 30, (S)-4-(1-(1-(3,4-dichlorophenyl)-1H-1,2,3-triazol-4-yl)ethoxy)quinoline], the melting point is reported as 64 to 66 °C.

For `CC(Oc1ccnc2ccccc12)c1cn(-c2ccc(Cl)cc2)nn1` (centres unmarked) [Compound 13, 4-(1-(1-(4-chlorophenyl)-1H-1,2,3-triazol-4-yl)ethoxy)quinoline], the melting point was 128 to 130 °C.

For `CC(C)C(Oc1cccc2ccccc12)C(=O)Nc1ccc(Cl)cc1` (centres unmarked) [Compound 116, N-(4-chlorophenyl)-3-methyl-2-(1-naphthalenyloxy)butanamide], the melting point was 150 to 152 °C.

For `CCCC(=O)[O-].[Na+]` [Sodium butyrate, reference compound], the “host cell” value (HCT-8 cells; human) was “inhibit HCT-8 growth in a dose-dependent manner”.

For `CC(Oc1ccnc2ccccc12)C(=O)Nc1ccc(Cl)cc1` (centres unmarked) [Compound 114, N-(4-chlorophenyl)-2-[[4-quinolinyl]oxy]propanamide], the melting point was 170 to 172 °C.

Work on `NC(=O)c1csc([C@@H]2O[C@H](CO)[C@@H](O)[C@H]2O)n1` [Tiazofurin, tiazofurin] yielded a Ki ([1]; read-out: Ki (observed), range over prokaryotic IMPDHs) of 1000 to 69000 µM and a Ki [1, 3] of 300 to 700 µM.

In the case of `C[C@@H](Oc1cccc2ncccc12)c1cn(-c2ccc(Cl)cc2)nn1` [Compound 21, (R)-5-(1-(1-(4-chlorophenyl)-1H-1,2,3-triazol-4-yl)ethoxy)quinoline], the melting point is reported as 94 to 96 °C.

In the case of `O=C(Nc1ccc(Cl)cc1)C(Oc1cccc2ccccc12)C1CC1` (centres unmarked) [Compound 119, N-(4-chlorophenyl)-2-cyclopropyl-2-(1-naphthalenyloxy)acetamide], the melting point is reported as 204 to 206 °C.

`C[C@@H](Oc1ccnc2ccccc12)c1cn(-c2ccc(Cl)c(Cl)c2)nn1` [Compound 28, (R)-4-(1-(1-(3,4-dichlorophenyl)-1H-1,2,3-triazol-4-yl)ethoxy)quinoline] showed a melting point of 62 to 64 °C.

Compound `CC(Oc1cccc2ccccc12)C(=O)Nc1ccc(Cl)cc1` (centres unmarked) [Compound 93, N-(4-chlorophenyl)-2-(1-naphthalenyloxy)propanamide] has a melting point of 146 to 148 °C.

For `COc1cc(NC(=O)Nc2cccc(CNC(=O)O[C@H]3CCOC3)c2)ccc1-c1cnco1` [merimepodib], the “concentration inhibiting lymphocyte proliferation” value [2] is given as ~100 nM.

Compound `Nc1ncnc2c1ncn2[C@@H]1O[C@H](COP(=O)(O)OP(=O)(O)O)[C@@H](O)[C@H]1O` [ADP] has a Ki [1, 3] of 200 to 9000 µM.

In the case of `CC(Oc1ccnc2ccccc12)c1cn(-c2ccc(Cl)c(Cl)c2)nn1` (centres unmarked) [A90], the “selectivity” value (T. gondii-CpIMPDH) is reported as “little selectivity” and the “host cell” value (HCT-8 cells) is reported as “do not inhibit host cell growth”.

For `C[C@@H](Oc1ccnc2ccccc12)c1cn(-c2ccc(C#N)c(Cl)c2)nn1`, the melting point was 176 to 178 °C.

With `CC(Oc1ccnc2ccccc12)c1cn(-c2ccc(C#N)c(Cl)c2)nn1` (centres unmarked) the melting point was 194 to 196 °C.

Work on `C[C@H](Oc1ccnc2ccccc12)c1cn(-c2ccc(C#N)c(Cl)c2)nn1` yielded a melting point of 176 to 178 °C.

Work on `C[C@@H](Oc1cccc2c1ccc[n+]2[O-])c1cn(-c2ccc(Cl)cc2)nn1` [Compound 32, (R)-5-(1-(1-(4-chlorophenyl)-1H-1,2,3-triazol-4-yl)ethoxy)quinoline 1-oxide] yielded a melting point of 184 to 186 °C.

Compound `O=C(Nc1ccc(Cl)cc1)C(Oc1cccc2ccccc12)c1ccccc1` (stereo not drawn) [Compound 102, N-(4-chlorophenyl)-α-(1-naphthalenyloxy)benzeneacetamide] has a melting point of 176 to 178 °C.

In the case of `CC(Oc1cc[n+]([O-])c2ccccc12)c1cn(-c2ccc(Cl)c(Cl)c2)nn1` (centres unmarked) [Compound 26, 4-(1-(1-(3,4-dichlorophenyl)-1H-1,2,3-triazol-4-yl)ethoxy)quinoline 1-oxide], the melting point is reported as 216 to 218 °C.

In the case of `CC(Oc1ccc(Cl)c2ccccc12)c1cn(-c2ccc(Cl)cc2)nn1` (centres unmarked) [A82], the “selectivity” value (T. gondii-CpIMPDH) is reported as “little selectivity” and the “host cell” value (HCT-8 cells) is reported as “do not inhibit host cell growth”.

`CC(Oc1cccc2c1ccc[n+]2[O-])c1cn(-c2ccc(Cl)cc2)nn1` (centres unmarked) [Compound 25, 5-(1-(1-(4-chlorophenyl)-1H-1,2,3-triazol-4-yl)ethoxy)quinoline 1-oxide] showed a melting point of 165 to 167 °C.

Compound `CC(Oc1ccnc2ccccc12)c1cn(-c2ccc(C#N)cc2)nn1` (centres unmarked) [Compound 15, 4-(4-(1-(quinolin-4-yloxy)ethyl)-1H-1,2,3-triazol-1-yl)benzonitrile] has a melting point of 176 to 178 °C.

In the case of `Clc1ccc(-n2cc(COc3ccnc4ccccc34)nn2)cc1` [Compound 17, 4-((1-(4-chlorophenyl)-1H-1,2,3-triazol-4-yl)methoxy)quinoline], the melting point is reported as 230 to 232 °C.

For `C[C@@H](Oc1cc[n+]([O-])c2ccccc12)c1cn(-c2ccc(Cl)cc2)nn1` [A110], the “host cell” value (HCT-8 cells) was “negligible effects on host cell growth”.
